Measured values reported in the supplement of paper PMC10307832.

compound: CC1=CC(=C(N1C2=CC=C(C=C2)Cl)C)C(=O)CN3CCCCC3 [IU1-47] + CC(C)C[C@H](NC(=O)[C@H](Cc1ccccc1)NC(=O)c1cnccn1)B(O)O [Bortezomib] (partner 0.002 µM); assay: relative viability (nuclei count vs DMSO), 5 days (fraction); higher = more cells survive; settings: first compound 0.08 µM
In short: (§1)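 After 5 days of treatment, lung cancer cells in 1536-well plates were fixed and stained in a single step (final 0.05% Triton X-100, 1% formaldehyde, 1 ug/ml Hoechst) and their nuclei counted on 4× images. Treatment had been applied by pin tool the day after seeding as one drug alone or as a fixed anchor-drug dose with five library-drug doses (not always all listed) in √10 steps. Relative viability is the nuclei count of treated wells divided by that of vehicle wells, and values are medians of duplicate plates.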

Cell Line	relative viability
HOP-62	0.926
HCC-44	0.891
LU99A	1.12
BEN	0.755
HARA	1.19
HCC-78	0.712
NCI-H322M	1.22
LCLC-97TM1	0.9
NCI-H2009	1.11
A-427	1.01
NCI-H441	0.732
NCI-H661	0.962
NCI-H1734	0.936
NCI-H460	1.14
NCI-H2347	0.913
SK-LU-1	1.22
201T	1.1

Cell Line	relative viability
NCI-H1915	1.02
HCC-827	1.22
LXF-289	0.993
NCI-H23	0.988
NCI-H647	0.97
NCI-H1651	0.988
EPLC-272H	1.05
NCI-H1792	1.03
NCI-H1355	1.3
NCI-H3122	0.962
NCI-H1437	0.599
NCI-H1755	1.15
NCI-H2023	0.94
HCC-15	1.11
PC-14	1.12
EKVX	1.18
LC-2-ad	1.03

same assay, conditions: first compound 0.253 µM

Cell Line	relative viability
HOP-62	1.05
HCC-44	0.851
LU99A	1.23
BEN	0.906
HARA	1.21
HCC-78	0.562
NCI-H322M	1.2
LCLC-97TM1	1.13
NCI-H2009	1.13
A-427	0.968
NCI-H441	0.574
NCI-H661	0.944
NCI-H1734	0.93
NCI-H460	1.25
NCI-H2347	0.76
SK-LU-1	1.2
201T	1.06

Cell Line	relative viability
NCI-H1915	1.05
HCC-827	1.12
LXF-289	1.06
NCI-H23	1.24
NCI-H647	0.904
NCI-H1651	0.977
EPLC-272H	0.943
NCI-H1792	1.07
NCI-H1355	1.21
NCI-H3122	1.02
NCI-H1437	0.496
NCI-H1755	1.06
NCI-H2023	1.15
HCC-15	1.05
PC-14	0.833
EKVX	1.11
LC-2-ad	1.08

same assay, conditions: first compound 0.8 µM

Cell Line	relative viability
HOP-62	0.701
HCC-44	0.89
LU99A	1.06
BEN	1.07
HARA	1.1
HCC-78	0.49
NCI-H322M	1.12
LCLC-97TM1	0.455
NCI-H2009	0.998
A-427	1.06
NCI-H441	0.489
NCI-H661	0.896
NCI-H1734	0.906
NCI-H460	1.14
NCI-H2347	0.892
SK-LU-1	1.4
201T	1.14

Cell Line	relative viability
NCI-H1915	1.04
HCC-827	1.05
LXF-289	1.05
NCI-H23	1.27
NCI-H647	1.08
NCI-H1651	0.995
EPLC-272H	1.04
NCI-H1792	1.1
NCI-H1355	1.33
NCI-H3122	1.08
NCI-H1437	0.495
NCI-H1755	1.03
NCI-H2023	1
HCC-15	1.05
PC-14	0.957
EKVX	1.18
LC-2-ad	1.1

same assay, conditions: first compound 2.53 µM

Cell Line	relative viability
HOP-62	0.753
HCC-44	0.873
LU99A	1.12
BEN	0.848
HARA	1.17
HCC-78	0.381
NCI-H322M	1.17
LCLC-97TM1	0.425
NCI-H2009	0.513
NCI-H441	0.561
NCI-H661	0.564
NCI-H460	1.2
NCI-H2347	0.827
SK-LU-1	1.03
HCC-827	1.08
LXF-289	1.05
NCI-H23	1.02
NCI-H647	0.859
NCI-H1651	0.946
NCI-H1792	0.879
NCI-H1355	0.978
NCI-H3122	1.09
NCI-H1437	0.486
NCI-H1755	1.09
NCI-H2023	0.481
HCC-15	0.928
PC-14	0.942
EKVX	1.13
LC-2-ad	1.03

same assay, conditions: first compound 8 µM

Cell Line	relative viability
HOP-62	0.77
HCC-44	0.898
LU99A	1.09
BEN	0.641
HARA	0.971
HCC-78	0.596
NCI-H322M	1.29
LCLC-97TM1	0.261
NCI-H2009	1.05
A-427	0.841
NCI-H441	0.56
NCI-H661	0.732
NCI-H1734	0.874
NCI-H460	0.469
NCI-H2347	0.746
SK-LU-1	1.05
201T	1.05

Cell Line	relative viability
NCI-H1915	1.02
HCC-827	1.11
LXF-289	0.954
NCI-H23	0.949
NCI-H647	0.862
NCI-H1651	0.89
EPLC-272H	0.891
NCI-H1792	0.662
NCI-H1355	1.16
NCI-H3122	0.996
NCI-H1437	0.469
NCI-H1755	0.92
NCI-H2023	1.12
HCC-15	0.856
PC-14	0.697
EKVX	0.985
LC-2-ad	0.97

compound: CC1=CC(=C(N1C2=CC=C(C=C2)Cl)C)C(=O)CN3CCCCC3 [IU1-47] + Nc1ncn([C@H]2C[C@H](O)[C@@H](CO)O2)c(=O)n1 [Decitabine] (partner 2 µM); assay: as above; settings: first compound 0.08 µM
In short: as §1

Cell Line	relative viability
HOP-62	0.233
HCC-44	0.982
LU99A	0.968
BEN	0.713
HARA	0.494
HCC-78	0.643
NCI-H322M	0.776
LCLC-97TM1	0.287
NCI-H2009	0.36
A-427	0.556
NCI-H441	0.254
NCI-H661	0.531
NCI-H1734	0.6
NCI-H460	0.536
NCI-H2347	0.662
SK-LU-1	0.57
201T	0.891

Cell Line	relative viability
NCI-H1915	0.269
HCC-827	0.336
LXF-289	0.377
NCI-H23	0.347
NCI-H647	0.454
NCI-H1651	0.627
EPLC-272H	0.362
NCI-H1792	0.625
NCI-H1355	0.364
NCI-H3122	0.416
NCI-H1437	0.573
NCI-H1755	0.712
NCI-H2023	0.182
HCC-15	0.619
PC-14	0.177
EKVX	0.376
LC-2-ad	0.996

same assay, conditions: first compound 0.253 µM

Cell Line	relative viability
HOP-62	0.218
HCC-44	0.938
LU99A	0.824
BEN	0.729
HCC-78	0.682
NCI-H322M	0.807
LCLC-97TM1	0.252
NCI-H2009	0.448
A-427	0.583
NCI-H441	0.257
NCI-H661	0.575
NCI-H1734	0.541
NCI-H460	0.494
NCI-H2347	0.663
SK-LU-1	0.695
201T	0.864

Cell Line	relative viability
NCI-H1915	0.256
HCC-827	0.323
LXF-289	0.367
NCI-H647	0.487
NCI-H1651	0.672
EPLC-272H	0.38
NCI-H1792	0.639
NCI-H1355	0.342
NCI-H3122	0.402
NCI-H1437	0.513
NCI-H1755	0.694
NCI-H2023	0.212
HCC-15	0.586
PC-14	0.205
EKVX	0.339
LC-2-ad	0.788

same assay, conditions: first compound 0.8 µM

Cell Line	relative viability
HOP-62	0.224
HCC-44	0.966
LU99A	0.852
BEN	0.848
HARA	0.524
HCC-78	0.71
NCI-H322M	0.645
LCLC-97TM1	0.244
NCI-H2009	0.366
A-427	0.517
NCI-H441	0.212
NCI-H661	0.596
NCI-H1734	0.548
NCI-H460	0.563
NCI-H2347	0.609
SK-LU-1	0.692
201T	0.943

Cell Line	relative viability
NCI-H1915	0.27
HCC-827	0.351
LXF-289	0.397
NCI-H23	0.312
NCI-H647	0.462
NCI-H1651	0.522
EPLC-272H	0.4
NCI-H1792	0.611
NCI-H1355	0.348
NCI-H3122	0.517
NCI-H1437	0.658
NCI-H1755	0.653
NCI-H2023	0.215
HCC-15	0.63
PC-14	0.235
EKVX	0.364
LC-2-ad	0.792

same assay, conditions: first compound 2.53 µM

Cell Line	relative viability
HOP-62	0.247
HCC-44	0.917
LU99A	0.883
BEN	0.507
HARA	0.489
HCC-78	0.668
NCI-H322M	0.683
NCI-H2009	0.382
A-427	0.547
NCI-H441	0.254
NCI-H661	0.556
NCI-H1734	0.5
NCI-H460	0.51
NCI-H2347	0.615
SK-LU-1	0.56
201T	0.867
NCI-H1915	0.25
HCC-827	0.31
LXF-289	0.367
NCI-H23	0.319
NCI-H647	0.39
NCI-H1651	0.357
NCI-H1792	0.497
NCI-H3122	0.491
NCI-H1437	0.63
NCI-H1755	0.797
NCI-H2023	0.248
HCC-15	0.552
PC-14	0.261

same assay, conditions: first compound 8 µM

Cell Line	relative viability
HOP-62	0.208
HCC-44	1.03
LU99A	0.768
BEN	0.668
HARA	0.486
HCC-78	0.723
NCI-H322M	0.652
LCLC-97TM1	0.234
NCI-H2009	0.406
A-427	0.5
NCI-H441	0.234
NCI-H661	0.503
NCI-H1734	0.419
NCI-H460	0.579
NCI-H2347	0.581
SK-LU-1	0.543

Cell Line	relative viability
201T	0.856
NCI-H1915	0.247
HCC-827	0.31
LXF-289	0.346
NCI-H23	0.302
NCI-H647	0.4
NCI-H1651	0.579
EPLC-272H	0.34
NCI-H1792	0.371
NCI-H1355	0.349
NCI-H3122	0.449
NCI-H1437	0.547
NCI-H1755	0.766
NCI-H2023	0.225
HCC-15	0.461
PC-14	0.209
